Publication PMC8231256, “Influence of N-Methylation and Conformation on Almiramide Anti-Leishmanial Activity” (Molecules, 2021)
Where “and” joins values, the source holds several entries; their conditions need not be identical. Equal values may be shown once. Read-outs that look alike come from different tables or passages of the source. Where a SMILES comes first, the peptide text is derived from it. [ ]: non-standard residue; d: D form. The star is where a group is joined. NMeF = CN[C@@H](Cc1ccccc1)C(=O)O; NMeV = CN[C@H](C(=O)O)C(C)C; Hept6ynoyl = C#CCCCCC(=O)*; NMeA = CN[C@@H](C)C(=O)O; NH(CH2)6NH2 = NCCCCCCN*

Experiments:
[1] = tested on: L. infantum AmB1000.1 (resistant to amphotericin B) promastigotes; assay type: cell-based, Leishmania infantum; conditions: for EC50: strain resistant to 1 µM amphotericin B, promastigotes, 72 h, 25 °C, 95% CI in brackets (n = 3), read-out: Ldi AmB-Res EC50; for fold more active than nonmethylated counterpart: AmB1000.1, 17 vs 16, 35 vs 31
Description: (§1) The biological activity of peptides 15–37 was assessed against the L. infantum wild-type stain (WT), as well as mutants resistant to the common anti-leishmanial agents, such as antimony (Sb^III), amphotericin B (AmB) and miltefosine (MF): Sb2000.1, AmB1000.1 and MF200.5. Activity against Leishmania promastigotes was determined by monitoring the replication of parasites after 72 h of incubation at 25 °C in the presence of increasing concentrations of the different peptides […] and reported as EC50 values (Table 2). […] The greatest potencies were observed using analogs against the amphotericin B resistant strain (e.g., AmB1000.1).
(§2) The L. infantum (MHOM/MA/67/ITMAP-263) wild-type stain (WT), as well as the resistant mutants Sb2000.1, AmB1000.1 and MF200.5 [53, 54, 55, 56, 57, 58], resistant to antimony (Sb^III), amphotericin B (AmB) and miltefosine (MF), respectively, were grown in M199 medium at 25 °C supplemented with 10% fetal bovine serum, 5 μg/mL of haemin at pH 7.0 and 2000 μM Sb (Potassium antimonyl tartrate, Sigma-Aldrich), 200 μM of MF (Miltefosine, Cayman Chem., Ann Arbor, MI, USA) or 1 μM AmB (Amphotericin B solution, Sigma, Oakville, ON, Canada). Antileishmanial values were determined in Leishmania promastigotes by monitoring the replication of parasites after 72 h of incubation at 25 °C in the presence of increasing concentrations of the different peptides by measuring A600 using a Cytation 5 machine (BioTek, Winooski, VT, USA). EC50 values were calculated based on dose–response curves analyzed by non-linear regression with GraphPad Prism 8.4.3 software (GraphPad Software, La Jolla, CA, USA). An average of at least three independent biological replicates from independent cultures was performed for each determination.

[2] = tested on: L. infantum Sb2000.1 (resistant to antimony) promastigotes; assay type: cell-based, Leishmania infantum; conditions: strain resistant to 2 mM antimonials, 72 h, 25 °C, 95% CI in brackets (n = 3), read-out: Ldi Sb-Res EC50
Description: as §1, §2

[3] = tested on: L. infantum (MHOM/MA/67/ITMAP-263) wild-type strain (WT) promastigotes; assay type: cell-based, Leishmania infantum; conditions: for EC50: 72 h; for Selectivity Index: SI = CC50 (LM-1 macrophage)/EC50 Ldi WT
Description: as §1, §2

[4] = tested on: L. infantum MF200.5 (resistant to miltefosine) promastigotes; assay type: cell-based, Leishmania infantum; conditions: for EC50: strain resistant to 200 µM miltefosine, promastigotes, 72 h, 25 °C, 95% CI in brackets (n = 3), read-out: Ldi MF-Res EC50
Description: as §1, §2

[5] = LM-1 macrophage cytotoxicity (Alamar Blue); assay type: cell-based, murine; conditions: mouse
Description: The host cytotoxicity was evaluated by monitoring the survival rates of murine LM-1 macrophage at different concentrations of peptides 15–37 ([…]) over 24 h. […] Exceptionally, MeAla peptide amide 21 was 3.2- to 8-fold less toxic than the other peptide analogs.
The LM1- macrophages were grown in DMEM supplemented with 10% heat inactivated FBS. Cells at the concentration of 100,000 cells/mL were cultivated for 24 h in a 96-well plate (37 °C, 5% CO2). The culture medium was removed and fresh medium containing the appropriate drug and concentration was added to the cells, which were incubated for 24 h (37 °C, 5% CO2). Seven different concentrations were tested ([…]) as well as controls (without drugs). After 24 h, the culture medium was removed and replaced for fresh medium containing 10% Alamar Blue (Thermo Fisher Scientific, Waltham, MA, USA) and incubated for 2 h (37 °C, 5% CO2). Readings at 570 and 600 nm (Asys UVM340 Plate reader, Biochrom, Cambridge, UK) were taken and analyzed according to the manufacturer protocol. Survival rates at different drug concentrations and CC50 values were calculated using the Excel software.

[6] = MHOM/MA/67/ITMAP-263) wild-type strain (WT) promastigotes
[7] = promastigotes, 25 °C, 95% confidence interval in brackets (n = 3), read-out: Ldi WT EC50
[8] = LM-1 macrophages, 24 h, Alamar Blue, read-out: CC50

Compound | EC50 [1] | EC50 [2] | EC50 [3, 6] | Selectivity Index [3] | EC50 [4] | CC50 at 24 h [5] | fold more active than nonmethylated counterpart [1] | EC50 [3, 7] | CC50 at 24 h [5, 8] | fold more active than nonmethylated counterpart ([4]; MF200.5, 35 vs 31)
C#CCCCCC(=O)N(C)[C@H](C(=O)N(C)[C@H](C(=O)N(C)[C@H]1CCN([C@@H](C)C(=O)N(C)[C@@H](Cc2ccccc2)C(=O)O)C1=O)C(C)C)C(C)C [peptide 28, HCC(CH2)4CO-Val(Me)-Val(Me)-Agl(Me)-Ala-Phe(Me)-OH] | > 300 µM | 250 µM | 255 µM | 0.9 | 282 µM | 245 µM |  |  |  | 
C#CCCCCC(=O)N[C@H]1CCN([C@H](C(=O)N[C@H](C(=O)N[C@@H](C)C(=O)N[C@@H](Cc2ccccc2)C(=O)O)C(C)C)C(C)C)C1=O [peptide 23, HCC(CH2)4CO-Agl-Val-Val-Ala-Phe-OH] | 212 µM | 241 µM | 225 µM | 1.61 | 232 µM | 363 µM |  |  |  | 
C#CCCCCC(=O)N(C)[C@H](C(=O)N(C)[C@H](C(=O)N(C)[C@H](C(=O)N(C)[C@@H](C)C(=O)N(C)[C@@H](Cc1ccccc1)C(=O)NCCCCCCN)C(C)C)C(C)C)C(C)C [peptide 17, HCC(CH2)4CO-Val(Me)-Val(Me)-Val(Me)-Ala(Me)-Phe(Me)-NH(CH2)6NH2] (Hept6ynoyl-[NMeV][NMeV][NMeV][NMeA][NMeF]-{NH(CH2)6NH2}) | 5.6 µM | 60.2 µM |  | 6.9 | 25.5 µM |  | 4 fold | 48.4 µM | 338 µM | 
C#CCCCCC(=O)N[C@H]1CCN([C@H](C(=O)N[C@H](C(=O)N[C@@H](C)C(=O)N[C@@H](Cc2ccccc2)C(=O)NCCCCCCN)C(C)C)C(C)C)C1=O [peptide 29, HCC(CH2)4CO-Agl-Val-Val-Ala-Phe-NH(CH2)6NH2] | 72 µM | 90.4 µM | 75 µM | 5.5 | 67.9 µM | 416 µM |  |  |  | 
C#CCCCCC(=O)N[C@H](C(=O)N[C@H](C(=O)N(C)[C@H](C(=O)N[C@@H](C)C(=O)N[C@@H](Cc1ccccc1)C(=O)NCCCCCCN)C(C)C)C(C)C)C(C)C [peptide 20, HCC(CH2)4CO-Val-Val-Val(Me)-Ala-Phe-NH(CH2)6NH2] (Hept6ynoyl-VV[NMeV]AF-{NH(CH2)6NH2}) | 57.2 µM | 40.2 µM | 53.9 µM | 5.2 | 60.6 µM | 281 µM |  |  |  | 
C#CCCCCC(=O)N(C)[C@H]1CCN([C@H](C(=O)N(C)[C@H](C(=O)N(C)[C@@H](C)C(=O)N(C)[C@@H](Cc2ccccc2)C(=O)NCCCCCCN)C(C)C)C(C)C)C1=O [peptide 33, HCC(CH2)4CO-Agl(Me)-Val-Val(Me)-Ala(Me)-Phe(Me)-NH(CH2)6NH2] | 184 µM | 140 µM | 119 µM | 3.4 | 191 µM | 407 µM |  |  |  | 
C#CCCCCC(=O)N(C)[C@H](C(=O)N(C)[C@H]1CCN([C@H](C(=O)N(C)[C@@H](C)C(=O)N(C)[C@@H](Cc2ccccc2)C(=O)NCCCCCCN)C(C)C)C1=O)C(C)C [peptide 34, HCC(CH2)4CO-Val(Me)-Agl(Me)-Val-Ala(Me)-Phe(Me)-NH(CH2)6NH2] | 24.8 µM |  | 33.2 µM | 12.0 | 23.1 µM | 398 µM |  |  |  | 
C#CCCCCC(=O)N[C@H](C(=O)N[C@H](C(=O)N[C@H]1CCN([C@@H](C)C(=O)N[C@@H](Cc2ccccc2)C(=O)NCCCCCCN)C1=O)C(C)C)C(C)C [peptide 31, HCC(CH2)4CO-Val-Val-Agl-Ala-Phe-NH(CH2)6NH2] | 130 µM | 48.8 µM | 64.6 µM | 6.0 | 126 µM | 389 µM |  |  |  | 
C#CCCCCC(=O)N[C@H](C(=O)N[C@H]1CCN([C@H](C(=O)N[C@@H](C)C(=O)N[C@@H](Cc2ccccc2)C(=O)NCCCCCCN)C(C)C)C1=O)C(C)C [peptide 30, HCC(CH2)4CO-Val-Agl-Val-Ala-Phe-NH(CH2)6NH2] | 114 µM | 37.6 µM | 47.4 µM | 8.6 | 129 µM | 407 µM |  |  |  | 
C#CCCCCC(=O)N[C@H](C(=O)N[C@H](C(=O)N[C@H](C(=O)N(C)[C@@H](C)C(=O)N[C@@H](Cc1ccccc1)C(=O)NCCCCCCN)C(C)C)C(C)C)C(C)C [peptide 21, HCC(CH2)4CO-Val-Val-Val-Ala(Me)-Phe-NH(CH2)6NH2] (Hept6ynoyl-VVV[NMeA]F-{NH(CH2)6NH2}) | 65.7 µM | 79.8 µM | 75.8 µM | 19.1 and 18.9 | 63.5 µM | 1440 µM |  |  |  | 
C#CCCCCC(=O)N(C)[C@H]1CCN([C@H](C(=O)N(C)[C@H](C(=O)N(C)[C@@H](C)C(=O)N(C)[C@@H](Cc2ccccc2)C(=O)O)C(C)C)C(C)C)C1=O [peptide 26, HCC(CH2)4CO-Agl(Me)-Val-Val(Me)-Ala-Phe(Me)-OH] | 252 µM | 220 µM | 217 µM | 1.46 | 224 µM | 316 µM |  |  |  | 
C#CCCCCC(=O)N[C@H](C(=O)N[C@H](C(=O)N[C@H](C(=O)N[C@@H](C)C(=O)N[C@@H](Cc1ccccc1)C(=O)O)C(C)C)C(C)C)C(C)C [peptide 15, HCC(CH2)4CO-Val-Val-Val-Ala-Phe-OH] (Hept6ynoyl-VVVAF-OH) | 46.4 µM | 60.3 µM | 44.7 µM | 7.0 | 50.8 µM | 316 µM |  |  |  | 
C#CCCCCC(=O)N[C@H](C(=O)N[C@H](C(=O)N[C@H](C(=O)N[C@H]1CCN([C@@H](Cc2ccccc2)C(=O)NCCCCCCN)C1=O)C(C)C)C(C)C)C(C)C [peptide 32, HCC(CH2)4CO-Val-Val-Val-Agl-Phe-NH(CH2)6NH2] | 90.1 µM | 87.8 µM | 91.2 µM | 4.3 | 84.2 µM | 389 µM |  |  |  | 
C#CCCCCC(=O)N(C)[C@H](C(=O)N(C)[C@H](C(=O)N(C)[C@H]1CCN([C@@H](C)C(=O)N(C)[C@@H](Cc2ccccc2)C(=O)NCCCCCCN)C1=O)C(C)C)C(C)C [peptide 35, HCC(CH2)4CO-Val(Me)-Val(Me)-Agl(Me)-Ala-Phe(Me)-NH(CH2)6NH2] | 92 µM | 81.5 µM | 78.6 µM | 4.7 | 85.3 µM | 371 µM | 1.4 fold |  |  | 1.5 fold
C#CCCCCC(=O)N(C)[C@H](C(=O)N(C)[C@H](C(=O)N(C)[C@H](C(=O)N(C)[C@@H](C)C(=O)N(C)[C@@H](Cc1ccccc1)C(=O)O)C(C)C)C(C)C)C(C)C [peptide 12, HCC(CH2)4CO-Val(Me)-Val(Me)-Val(Me)-Ala(Me)-Phe(Me)-OH] (Hept6ynoyl-[NMeV][NMeV][NMeV][NMeA][NMeF]-OH) | 79.6 µM | 70.7 µM |  | 4.1 | 75.6 µM |  |  | 68.3 µM | 281 µM | 
